In US9546164B2 (GENENTECH, INC., priority 2013, dated 2017):
Structures can show the parent of a compound that is named as a salt. Where two headings read alike, the source gives them in different places.

Experiments:
NaV1.7 = NaV1.7 (Homo sapiens (Human), UniProt Q15858); test: Patch voltage clamp electrophysiological assay (EP), NaV1.7; assay type: cell-based; settings: HEK-293 cells stably expressing human NaV1.7 with β1 subunit, whole-cell patch clamp, holding −60 mV
Description: Electrophysiological Assay (EP) (In vitro Assay)
Control sodium currents were measured in 0.5% DMSO.
Series resistance compensation was applied (60-80%).

NaV1.5 [1] = target: T1, NaV1.5 (Homo sapiens (Human), UniProt Q14524); test: Patch voltage clamp electrophysiological assay (EP), NaV1.5
Description: (§1) The following patch voltage clamp electrophysiology studies were performed on representative compounds of the invention using human embryonic kidney cells (HEK), permanently transfected with an expression vector containing the full-length cDNA coding for the desired human sodium channel α-subunit, grown in culture media containing 10% FBS, 1% PSG, and 0.5 mg/mL G418 at 37° C. with 5% CO2. […] The β1 subunit was coexpressed in both the NaV1.7 and NaV1.5 cell lines.
(§2) Sodium currents were measured rising the patch clamp technique in the whole-cell configuration using either a PatchXpress automated voltage clamp or manually using an Axopatch 200B (Axon Instruments) or Model 2400 (A-M systems) amplifier. […] The pipette was filled with a solution comprised of: 5 mM NaCl, 10 mM CsCl, 120 mM CsF, 0.1 mM CaCl2, 2 mM MgCl2, 10 mM HEPES, 10 mM EGTA; and adjusted to pH 7.2 with CsOH. The external solution had the following composition: 140 mM NaCl, 5 mM KCl, 2 mM CaCl2, 1 mM MgCl2, 10 mM HEPES; and adjusted to pH 7.4 with NaOH. In some studies, the external sodium was reduced by equimolar replacement with choline. Osmolality in the CsF internal and NaCl external solutions was adjusted to 300 mOsm/kg and 310 mOsm/kg with glucose, respectively. All recordings were performed at ambient temperature in a bath chamber with a volume of 150 μL. Control sodium currents were measured in 0.5% DMSO. Controls and representative compounds of the invention were applied to the recording chamber through a 4-pinch or 8-pinch valve bath perfusion system manufactured by ALA Scientific Instruments.
(§3) Currents were recorded at 40 kHz sampling frequency, filtered at 5 Hz, and stored using a Digidata-1322A analogue/digital interface with the pClamp software (Axon instruments). Series resistance compensation was applied (60-80%). […] All statistics in this study are given as mean±SD.
(§4) The membrane potential was maintained at a voltage where reactivation of the channel is complete (which was −60 mV for both NaV1.7 and NaV1.5). The voltage is then stepped back to a very negative (Vhold=150 mV) voltage for 20 ms and then a test poise is applied to quantify the compound block. The 20 ms brief repolarization was long enough for compound-free channels to completely recover from fast inactivation, but the compound-bound channels recovered more slowly such that negligible recovery could occur during this interval. The percent decrease in sodium current following wash-on of compound was taken as the percent block of sodium channels.

hNav1.7 = hNav1.7 (Homo sapiens (Human), UniProt Q15858); test: Tritiated sulfonamide competitive binding to membranes from cells expressing hNav1.7 and the β1 subunit;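 also: Filter-bound radioactivity counted by liquid scintillation, nonspecific binding defined with excess unlabelled ligand, IC50 fitted to percent inhibition of specific binding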
NaV1.5 [2] = target: T1, NaV1.5
Description: as §1, §2, §3, §4

[3] = read-out: NaV1.5 EP, HEK-293 cells stably expressing human NaV1.5 with β1 subunit, whole-cell patch clamp, holding −60 mV
[4] = read-out: Ligand Binding Assay, 100 pM [3H]compound, membranes with hNav1.7 and β1 subunit, 18 h, room temperature

T1 sequence (Q14524 whole entry): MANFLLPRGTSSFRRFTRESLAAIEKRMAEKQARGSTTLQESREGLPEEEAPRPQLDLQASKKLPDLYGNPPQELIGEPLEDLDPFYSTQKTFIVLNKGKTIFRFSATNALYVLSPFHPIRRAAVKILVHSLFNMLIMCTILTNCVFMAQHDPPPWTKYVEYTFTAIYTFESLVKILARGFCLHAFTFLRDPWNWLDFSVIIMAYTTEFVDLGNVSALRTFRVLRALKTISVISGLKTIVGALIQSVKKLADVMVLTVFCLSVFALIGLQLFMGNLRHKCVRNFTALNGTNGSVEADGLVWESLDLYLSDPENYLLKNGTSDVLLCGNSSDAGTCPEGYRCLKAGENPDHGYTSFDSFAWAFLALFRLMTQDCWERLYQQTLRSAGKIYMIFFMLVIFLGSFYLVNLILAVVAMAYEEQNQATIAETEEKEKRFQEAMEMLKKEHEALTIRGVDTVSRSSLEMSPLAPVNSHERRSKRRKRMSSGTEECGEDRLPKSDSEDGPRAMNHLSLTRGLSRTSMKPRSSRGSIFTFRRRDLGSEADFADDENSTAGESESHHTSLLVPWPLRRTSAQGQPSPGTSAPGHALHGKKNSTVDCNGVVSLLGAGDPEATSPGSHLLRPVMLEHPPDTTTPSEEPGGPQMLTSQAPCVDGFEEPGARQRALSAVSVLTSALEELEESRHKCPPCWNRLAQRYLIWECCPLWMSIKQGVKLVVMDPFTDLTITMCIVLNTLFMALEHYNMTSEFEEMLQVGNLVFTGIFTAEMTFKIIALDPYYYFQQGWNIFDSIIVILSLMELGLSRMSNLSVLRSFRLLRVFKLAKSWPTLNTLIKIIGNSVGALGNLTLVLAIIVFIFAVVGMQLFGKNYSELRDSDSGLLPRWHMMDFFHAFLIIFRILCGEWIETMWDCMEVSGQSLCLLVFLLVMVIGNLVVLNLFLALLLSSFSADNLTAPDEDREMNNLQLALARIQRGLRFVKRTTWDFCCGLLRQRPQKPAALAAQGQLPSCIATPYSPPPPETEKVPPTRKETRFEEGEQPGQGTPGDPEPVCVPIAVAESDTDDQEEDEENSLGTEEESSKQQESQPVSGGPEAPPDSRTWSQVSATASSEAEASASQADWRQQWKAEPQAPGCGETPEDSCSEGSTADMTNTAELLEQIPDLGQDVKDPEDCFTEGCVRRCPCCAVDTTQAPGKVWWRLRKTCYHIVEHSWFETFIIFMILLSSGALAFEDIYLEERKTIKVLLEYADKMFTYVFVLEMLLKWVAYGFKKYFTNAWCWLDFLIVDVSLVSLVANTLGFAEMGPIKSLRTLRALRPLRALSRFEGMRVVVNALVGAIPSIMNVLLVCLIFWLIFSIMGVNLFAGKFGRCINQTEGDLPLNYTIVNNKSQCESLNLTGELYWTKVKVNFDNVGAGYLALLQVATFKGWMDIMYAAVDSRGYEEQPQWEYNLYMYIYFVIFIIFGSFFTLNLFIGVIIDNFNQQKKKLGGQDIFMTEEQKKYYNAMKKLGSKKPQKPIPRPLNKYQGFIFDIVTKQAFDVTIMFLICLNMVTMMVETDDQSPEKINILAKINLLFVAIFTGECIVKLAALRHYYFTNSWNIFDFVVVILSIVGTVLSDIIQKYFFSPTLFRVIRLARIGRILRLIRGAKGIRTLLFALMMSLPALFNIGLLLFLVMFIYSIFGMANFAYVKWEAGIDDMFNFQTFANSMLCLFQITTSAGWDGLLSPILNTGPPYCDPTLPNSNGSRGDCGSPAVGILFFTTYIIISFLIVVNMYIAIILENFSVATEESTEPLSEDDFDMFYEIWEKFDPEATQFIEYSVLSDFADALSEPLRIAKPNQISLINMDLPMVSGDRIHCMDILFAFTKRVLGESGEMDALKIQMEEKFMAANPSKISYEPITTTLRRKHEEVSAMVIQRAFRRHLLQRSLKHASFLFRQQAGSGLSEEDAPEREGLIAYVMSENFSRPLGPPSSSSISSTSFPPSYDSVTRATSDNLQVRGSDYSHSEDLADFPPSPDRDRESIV
NaV1.7, sequence (Q15858 other isoform, or with tags, fused parts or gaps): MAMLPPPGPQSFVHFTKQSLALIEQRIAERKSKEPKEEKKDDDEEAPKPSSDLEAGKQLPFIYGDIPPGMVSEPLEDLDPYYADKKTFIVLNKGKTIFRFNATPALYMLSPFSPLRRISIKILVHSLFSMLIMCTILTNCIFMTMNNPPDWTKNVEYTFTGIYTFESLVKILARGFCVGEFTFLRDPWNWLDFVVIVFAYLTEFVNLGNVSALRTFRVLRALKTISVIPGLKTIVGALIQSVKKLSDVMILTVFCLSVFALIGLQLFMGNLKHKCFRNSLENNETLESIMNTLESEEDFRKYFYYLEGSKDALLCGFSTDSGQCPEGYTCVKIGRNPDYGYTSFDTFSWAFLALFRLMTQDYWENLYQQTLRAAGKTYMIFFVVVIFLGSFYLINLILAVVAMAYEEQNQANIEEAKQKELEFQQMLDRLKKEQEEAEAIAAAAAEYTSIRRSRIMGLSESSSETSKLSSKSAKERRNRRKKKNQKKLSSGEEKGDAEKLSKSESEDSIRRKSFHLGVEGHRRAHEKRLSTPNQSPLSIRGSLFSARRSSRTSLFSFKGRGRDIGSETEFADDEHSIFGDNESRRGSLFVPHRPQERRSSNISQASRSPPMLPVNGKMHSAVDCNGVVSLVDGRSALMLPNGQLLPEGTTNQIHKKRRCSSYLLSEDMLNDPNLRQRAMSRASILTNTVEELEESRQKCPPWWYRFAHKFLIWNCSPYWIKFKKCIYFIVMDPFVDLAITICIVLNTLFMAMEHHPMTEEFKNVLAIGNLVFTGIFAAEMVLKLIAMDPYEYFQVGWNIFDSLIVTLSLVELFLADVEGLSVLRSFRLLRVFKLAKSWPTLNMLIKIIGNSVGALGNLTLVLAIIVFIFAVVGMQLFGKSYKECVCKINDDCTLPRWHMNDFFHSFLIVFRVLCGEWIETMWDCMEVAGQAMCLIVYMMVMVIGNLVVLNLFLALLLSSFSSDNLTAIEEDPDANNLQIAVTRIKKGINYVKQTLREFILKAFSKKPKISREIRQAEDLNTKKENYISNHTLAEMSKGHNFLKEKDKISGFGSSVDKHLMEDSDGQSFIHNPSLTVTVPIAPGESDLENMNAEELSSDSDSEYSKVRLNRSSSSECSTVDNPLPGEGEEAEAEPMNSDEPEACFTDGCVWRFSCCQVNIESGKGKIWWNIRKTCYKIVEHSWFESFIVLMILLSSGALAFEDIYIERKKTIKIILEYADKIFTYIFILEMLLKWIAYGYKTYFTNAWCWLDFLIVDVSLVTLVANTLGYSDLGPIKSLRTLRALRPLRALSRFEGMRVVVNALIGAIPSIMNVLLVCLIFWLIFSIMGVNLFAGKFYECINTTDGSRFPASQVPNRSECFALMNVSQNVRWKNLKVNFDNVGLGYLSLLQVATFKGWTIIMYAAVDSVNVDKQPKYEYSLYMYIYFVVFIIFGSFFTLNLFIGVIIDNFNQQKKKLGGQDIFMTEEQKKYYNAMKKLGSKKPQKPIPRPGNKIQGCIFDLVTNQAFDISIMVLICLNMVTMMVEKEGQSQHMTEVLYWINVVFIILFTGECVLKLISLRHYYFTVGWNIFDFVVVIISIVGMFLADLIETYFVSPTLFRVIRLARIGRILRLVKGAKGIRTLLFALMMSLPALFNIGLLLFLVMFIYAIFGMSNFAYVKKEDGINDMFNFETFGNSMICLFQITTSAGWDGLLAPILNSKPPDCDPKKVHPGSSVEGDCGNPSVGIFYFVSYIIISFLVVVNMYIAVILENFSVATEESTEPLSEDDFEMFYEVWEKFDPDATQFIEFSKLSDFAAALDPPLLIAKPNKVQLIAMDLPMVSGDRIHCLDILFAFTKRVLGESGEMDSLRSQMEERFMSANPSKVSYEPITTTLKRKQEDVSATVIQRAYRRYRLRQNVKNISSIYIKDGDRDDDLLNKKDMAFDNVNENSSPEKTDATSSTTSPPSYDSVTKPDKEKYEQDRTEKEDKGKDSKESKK
NaV1.7, sequence (Q07699 19-218 partner): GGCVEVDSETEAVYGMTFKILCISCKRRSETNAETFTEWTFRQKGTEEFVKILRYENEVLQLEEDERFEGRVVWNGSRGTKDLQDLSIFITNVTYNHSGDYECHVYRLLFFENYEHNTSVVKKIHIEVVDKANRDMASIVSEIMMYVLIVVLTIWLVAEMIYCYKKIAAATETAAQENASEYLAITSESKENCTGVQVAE
hNav1.7, sequence (Q15858 other isoform, or with tags, fused parts or gaps): as the sequence (Q15858 other isoform, or with tags, fused parts or gaps) above
hNav1.7, sequence (Q07699 19-218 partner): as the sequence (Q07699 19-218 partner) above

| Compound | IC50 (NaV1.7) [nM] | IC50 (hNav1.7; [4]) [nM] | IC50 (hNav1.7) [nM] | IC50 (NaV1.5 [1]; [3]) [nM] | IC50 (NaV1.5 [1]) [nM] | IC50 (NaV1.5 [2]) [nM] |
| --- | --- | --- | --- | --- | --- | --- |
| O=C(NS(=O)(=O)N1CCC1)c1cc(C2CC2)c(OCC2CC3CCC(C2)N3C(c2ccccc2)c2ccccc2)cc1F (stereo not shown) [Example 49, N-(azetidin-1-ylsulfonyl)-4-((8-benzhydryl-8-azabicyclo[3.2.1]-octan-3-yl)methoxy)-5-cyclopropyl-2-fluorobenzamide] |  |  |  |  |  | 199 |
| CS(=O)(=O)NC(=O)c1cc(C2CC2)c(OCC2CCN(Cc3cc(F)cc(C(F)(F)F)c3)CC2)cc1F [Example 228, 5-Cyclopropyl-2-fluoro-4-((1-(3-fluoro-5-(trifluoromethyl)benzyl)piperidin-4-yl)methoxy)-N-(methylsulfonyl)benzamide] | 31 | 5.1 |  | 4100 |  |  |
| O=C(NS(=O)(=O)C1CC1)c1cc(C2CC2)c(OCC2CCN(Cc3cc(Cl)cc(Cl)c3)CC2)cc1F [Example 259, 5-Cyclopropyl-N-(cyclopropylsulfonyl)-4-((1-(3,5-dichlorobenzyl)piperidin-4-yl)methoxy)-2-fluorobenzamide] | 23 | 2.2 |  | 110 |  |  |
| CS(=O)(=O)NC(=O)c1cc(C2CC2)c(OCC2(F)CCN(Cc3cc(C(F)(F)F)cc(Cl)c3F)CC2)cc1F [Example 346, 4-((1-(3-chloro-2-fluoro-5-(trifluoromethyl)benzyl)-4-fluoropiperidin-4-yl)methoxy)-5-cyclopropyl-2-fluoro-N-(methylsulfonyl)benzamide trifluoroacetic acid salt] | 2.2 | 4.4 |  | 682000 |  |  |
| CC(C)(c1cc(Cl)cc(Cl)c1)N1CCC[C@@H](Oc2cc(F)c(C(=O)NS(=O)(=O)C3CC3)cc2C2CC2)C1 [Example 495, (R)-5-cyclopropyl-N-(cyclopropylsulfonyl)-4-((1-(2-(3,5-dichlorophenyl)propan-2-yl)oxy)-2-fluorobenzamide, trifluoroacetic acid salt] | 0.2 | 4.4 |  | 15.4 |  |  |
| CS(=O)(=O)NC(=O)c1cc(C2CC2)c(OCC2CCN(Cc3cc(Cl)cc(Cl)c3C#N)CC2)cc1F [Example 594, 5-Cyclopropyl-4-((1-(3,5-dichloro-2-cyanobenzyl)piperidin-4-yl)methoxy)-2-fluoro-N-(methylsulfonyl)benzamide] | 8.4 | 137 |  | 623 |  |  |

Further lines, with some results ahead:

| IC50 (NaV1.7) [nM] | IC50 (hNav1.7; [4]) [nM] | IC50 (hNav1.7) [nM] | Compound | IC50 (NaV1.5 [1]; [3]) [nM] | IC50 (NaV1.5 [1]) [nM] | IC50 (NaV1.5 [2]) [nM] |
| --- | --- | --- | --- | --- | --- | --- |
| 3 | 1.6 |  | CCS(=O)(=O)NC(=O)c1cc(C2CC2)c(OCC2CCN([C@@H](c3cc(Cl)cc(Cl)c3)C(C)(C)OC)CC2)cc1F (single isomer, unassigned) [Example 208] | 13 |  |  |
| 3 | 2.7 |  | C[C@H](c1ccc(Cl)c(C2CC2)n1)N1CCC[C@@H](Oc2cc(F)c(C(=O)NS(C)(=O)=O)cc2C2CC2)C1 (single isomer, unassigned) [Example 309] | 380 |  |  |
| 22.6 | 35.6 |  | O=C(NS(=O)(=O)N1CCC1)c1cc(C2CC2)c(O[C@@H]2CCCN(Cc3ccccc3)C2)cc1F [Example 1, (R)—N-(azetidin-1-ylsulfonyl)-4-((1-benzylpiperidin-3-yl)oxy)-5-cyclopropyl-2-fluorobenzamide] | 2760 |  |  |
| 0.9 |  | 3 | O=C(NS(=O)(=O)N1CCC1)c1cc(C2CC2)c(O[C@@H]2CCCN(Cc3ccc(F)cc3Cl)C2)cc1F [Example 6, (R)—N-(azetidin-1-ylsulfonyl)-4-((1-(2-chloro-4-fluorobenzyl)piperidin-3-yl)oxy)-5-cyclopropyl-2-fluoroenzamide] |  | 33.1 |  |
| 5.8 | 4.19 |  | C[C@@H](c1cc(Cl)cc(Cl)c1)N1CCC(COc2cc(F)c(C(=O)NS(C)(=O)=O)cc2C2CC2)CC1 [Example 100, (S)-5-Cyclopropyl-4-((1-(1-(3,5-dichlorophenyl)ethyl)piperidin-4-yl)methoxy)-2-fluoro-N-(methylsulfonyl)benzamide] | 552 |  |  |
| < 1 | 2.2 |  | CS(=O)(=O)NC(=O)c1cc(C2CC2)c(O[C@@H]2CCCN(Cc3ccc(F)cc3Cl)C2)cc1F [Example 312, (R)-4-((1-(2-chloro-4-fluorobenzyl)piperidin-3-yl)oxy)-5-cyclopropyl-2-fluoro-N-(methylsulfonyl)benzamide] | 310 |  |  |
| < 3 | 3.8 |  | CS(=O)(=O)NC(=O)c1cc(C2CC2)c(CN2CCO[C@H](Cc3cc(Cl)cc(Cl)c3)C2)cc1F [Example 463, (R)-5-cyclopropyl-4-((2-(3,5-dichlorobenzyl)morpholino)methyl)-2-fluoro-N-(methylsulfonyl)benzamide] | 669 |  |  |
| < 3 | 2.7 |  | O=C(NS(=O)(=O)C1CC1)c1cc(C2CC2)c(CN2CCO[C@H](Cc3cc(Cl)cc(Cl)c3)C2)cc1F [Example 464, (R)-5-cyclopropyl-N-(cyclopropylsulfonyl)-4-((2-(3,5-dichlorobenzyl)morpholino)methyl)-2-fluorobenzamide] | 109 |  |  |
| < 3 | 5.6 |  | O=C(NS(=O)(=O)C1CC1)c1cc(C2CC2)c(CN2CCC(Oc3ncc(C4CC4)cc3Cl)CC2)cc1F [Example 474, 4-((4-((3-chloro-5-cyclopropylpyridin-2-yl)oxy)piperidin-1-yl)methyl)-5-cyclopropyl-N-(cyclopropylsulfonyl)-2-fluorobenzamide hydrochloride] | 449 |  |  |
